We go through six molecules from US9790228B2, “Heterocyclic kinase inhibitors” (Intellikine LLC, priority 2008, dated 2017).

The conditions of series [1]: control compound, 5 μM; cited from earlier work.
For series [2] the following is noted: PBS pH 7.4, 24 hours, 37° C.; cited from earlier work.
In a further series the test system is PI3K/Akt/mTor signaling. The series can be described thus: Kinase signaling in blood (phosflow). Conditions: anti-CD3 stimulated splenocytes or PBMC. It counts as cell-based. Here is the method: PI3K/Akt/mTor signaling is measured in blood cells using the phosflow method (Methods Enzymol. 2007; 434:131-54). The advantage of this method is that it is by nature a single cell assay so that cellular heterogeneity can be detected rather than population averages. This allows concurrent distinction of signaling states in different populations defined by other markers. Phosflow is also highly quantitative. To test the effects of one or more compounds disclosed herein, unfractionated splenocytes, or peripheral blood mononuclear cells are stimulated with anti-CD3 to initiate T-cell receptor signaling. The cells are then fixed and stained for surface markers and intracellular phosphoproteins.
Similarly, aliquots of whole blood are incubated for 15 minutes with vehicle (e.g. 0.1% DMSO) or kinase inhibitors at various concentrations, before addition of stimuli to crosslink the T cell receptor (TCR) (anti-CD3 with secondary antibody) or the B cell receptor (BCR) using anti-kappa light chain antibody (Fab′2 fragments). After approximately 5 and 15 minutes, samples are fixed (e.g. with cold 4% paraformaldehyde) and used for phosflow. […] The level of phosphrylation of kinase substrates such as Akt and S6 are then measured by incubating the fixed cells with labeled antibodies specific to the phosphorylated isoforms of these proteins. The population of cells are then analyzed by flow cytometry.

The target in the next series is p110β/p85α (Homo sapiens, UniProt P42338). The series can be described thus: PI3K β inhibition assay (TLC lipid kinase or HTRF). Format: biochemical. Conditions: read-out: PI3K β IC50. The essentials: (§1)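 IC50 from TLC lipid kinase assay (25 mM HEPES pH 7.4, 10 mM MgCl2, 100 μg/ml phosphatidylinositol, 10 or 100 μM γ-32P-ATP, 5 min RT, phosphorimager) at 10–12 two-fold dilutions, or HTRF (10 μM PIP2, 10 μM ATP, 1 h RT) measuring PIP3 by TR-FRET; 2% DMSO final.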

A further series deals with Balb/c splenic B cells. The series can be described thus: B cell activation and proliferation assay (Alamar Blue). Format: cell-based, mouse. Conditions: Mus musculus, B-cell. The method in brief: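 Purified Balb/c splenic B cells, 50,000/well, pretreated with compound 30 min (0.2% DMSO), then stimulated with 10 ug/ml LPS or 5 ug/ml anti-IgM F(ab′)2 plus 2 ng/ml IL4 (cocktail concentrations) for 72 h at 37 °C. Alamar Blue 5 h, fluorescence 560/590 nm; IC50/EC50 calculated.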

A further series has as its target p110γ (Homo sapiens (Human), UniProt P48736). In words: PI3K γ inhibition assay (TLC lipid kinase or HTRF). Format: biochemical. The essentials: as §1
The target of a further series is p110α/p85α (Homo sapiens (Human), UniProt P42336). The series can be described thus: PI3K α inhibition assay (TLC lipid kinase or HTRF). Format: biochemical. The method in brief: as §1
In a further series the target is p110δ/p85α (Homo sapiens (Human), UniProt O00329). The series can be described thus: PI3K δ inhibition assay (TLC lipid kinase or HTRF). It counts as biochemical. The method in brief: as §1
A further series concerns lupus disease model mice. Conditions: B6.Slelz.Sle3z model; cited from earlier work.

pEC50, pIC50: −log10 of the molar value. Bounds are passed on as bounds.

p110γ, sequence (P48736 whole entry): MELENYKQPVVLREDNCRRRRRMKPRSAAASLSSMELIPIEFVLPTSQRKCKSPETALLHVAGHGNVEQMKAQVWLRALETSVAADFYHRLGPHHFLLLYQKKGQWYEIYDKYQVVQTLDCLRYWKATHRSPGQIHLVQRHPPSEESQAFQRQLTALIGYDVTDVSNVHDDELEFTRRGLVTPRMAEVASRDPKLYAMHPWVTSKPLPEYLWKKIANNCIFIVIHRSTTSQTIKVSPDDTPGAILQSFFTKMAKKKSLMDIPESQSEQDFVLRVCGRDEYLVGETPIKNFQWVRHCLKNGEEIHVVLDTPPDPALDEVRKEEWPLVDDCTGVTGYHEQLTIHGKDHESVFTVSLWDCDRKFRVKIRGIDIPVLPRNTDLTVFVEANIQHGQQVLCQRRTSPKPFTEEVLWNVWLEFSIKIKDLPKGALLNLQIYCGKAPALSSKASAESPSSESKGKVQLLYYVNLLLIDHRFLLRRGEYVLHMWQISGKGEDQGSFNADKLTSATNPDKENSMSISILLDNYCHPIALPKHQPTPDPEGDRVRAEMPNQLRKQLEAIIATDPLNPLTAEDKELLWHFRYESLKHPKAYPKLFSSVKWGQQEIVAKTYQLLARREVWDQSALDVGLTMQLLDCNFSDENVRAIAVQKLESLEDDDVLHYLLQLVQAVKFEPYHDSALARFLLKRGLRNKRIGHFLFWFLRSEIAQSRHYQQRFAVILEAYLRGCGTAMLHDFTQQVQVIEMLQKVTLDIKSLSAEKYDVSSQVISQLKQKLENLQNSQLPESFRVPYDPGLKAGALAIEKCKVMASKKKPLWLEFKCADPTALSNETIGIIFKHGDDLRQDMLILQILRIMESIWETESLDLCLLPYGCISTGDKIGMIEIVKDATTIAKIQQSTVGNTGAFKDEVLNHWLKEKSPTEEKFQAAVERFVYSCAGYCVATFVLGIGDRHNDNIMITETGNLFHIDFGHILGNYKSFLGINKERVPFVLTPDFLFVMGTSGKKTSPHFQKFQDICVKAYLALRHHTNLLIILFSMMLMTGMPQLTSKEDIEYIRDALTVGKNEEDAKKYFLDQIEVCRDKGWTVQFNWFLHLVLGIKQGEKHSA
p110β/p85α, sequence (P42338 whole entry, looked up): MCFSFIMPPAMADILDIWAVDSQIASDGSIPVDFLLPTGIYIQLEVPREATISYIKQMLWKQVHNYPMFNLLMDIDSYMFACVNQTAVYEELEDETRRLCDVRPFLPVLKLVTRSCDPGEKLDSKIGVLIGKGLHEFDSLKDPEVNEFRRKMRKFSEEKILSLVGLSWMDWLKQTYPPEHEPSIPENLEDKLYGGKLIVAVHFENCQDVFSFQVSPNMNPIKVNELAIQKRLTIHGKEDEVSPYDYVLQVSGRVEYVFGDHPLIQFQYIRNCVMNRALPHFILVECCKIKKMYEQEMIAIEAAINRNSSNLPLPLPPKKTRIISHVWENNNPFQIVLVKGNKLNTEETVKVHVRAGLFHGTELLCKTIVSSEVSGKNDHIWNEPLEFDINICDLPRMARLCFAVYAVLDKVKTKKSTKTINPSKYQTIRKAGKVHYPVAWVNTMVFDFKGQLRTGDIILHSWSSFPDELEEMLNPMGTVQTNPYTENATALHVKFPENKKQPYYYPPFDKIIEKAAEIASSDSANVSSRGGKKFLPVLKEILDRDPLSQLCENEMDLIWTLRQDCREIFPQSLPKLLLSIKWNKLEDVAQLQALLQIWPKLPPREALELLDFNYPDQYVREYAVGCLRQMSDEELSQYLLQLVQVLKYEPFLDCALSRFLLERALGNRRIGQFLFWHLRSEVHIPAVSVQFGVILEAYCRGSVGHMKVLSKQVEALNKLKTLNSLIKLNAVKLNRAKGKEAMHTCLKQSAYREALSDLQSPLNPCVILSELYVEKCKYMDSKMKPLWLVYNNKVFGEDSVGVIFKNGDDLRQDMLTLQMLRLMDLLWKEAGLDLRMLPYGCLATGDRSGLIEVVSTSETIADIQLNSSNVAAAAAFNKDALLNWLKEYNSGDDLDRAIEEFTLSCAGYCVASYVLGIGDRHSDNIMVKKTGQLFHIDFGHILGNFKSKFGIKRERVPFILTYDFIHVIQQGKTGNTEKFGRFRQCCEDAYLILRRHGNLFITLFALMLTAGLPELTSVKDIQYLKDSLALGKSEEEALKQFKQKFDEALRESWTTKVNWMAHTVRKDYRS
p110α/p85α, sequence (P42336 whole entry): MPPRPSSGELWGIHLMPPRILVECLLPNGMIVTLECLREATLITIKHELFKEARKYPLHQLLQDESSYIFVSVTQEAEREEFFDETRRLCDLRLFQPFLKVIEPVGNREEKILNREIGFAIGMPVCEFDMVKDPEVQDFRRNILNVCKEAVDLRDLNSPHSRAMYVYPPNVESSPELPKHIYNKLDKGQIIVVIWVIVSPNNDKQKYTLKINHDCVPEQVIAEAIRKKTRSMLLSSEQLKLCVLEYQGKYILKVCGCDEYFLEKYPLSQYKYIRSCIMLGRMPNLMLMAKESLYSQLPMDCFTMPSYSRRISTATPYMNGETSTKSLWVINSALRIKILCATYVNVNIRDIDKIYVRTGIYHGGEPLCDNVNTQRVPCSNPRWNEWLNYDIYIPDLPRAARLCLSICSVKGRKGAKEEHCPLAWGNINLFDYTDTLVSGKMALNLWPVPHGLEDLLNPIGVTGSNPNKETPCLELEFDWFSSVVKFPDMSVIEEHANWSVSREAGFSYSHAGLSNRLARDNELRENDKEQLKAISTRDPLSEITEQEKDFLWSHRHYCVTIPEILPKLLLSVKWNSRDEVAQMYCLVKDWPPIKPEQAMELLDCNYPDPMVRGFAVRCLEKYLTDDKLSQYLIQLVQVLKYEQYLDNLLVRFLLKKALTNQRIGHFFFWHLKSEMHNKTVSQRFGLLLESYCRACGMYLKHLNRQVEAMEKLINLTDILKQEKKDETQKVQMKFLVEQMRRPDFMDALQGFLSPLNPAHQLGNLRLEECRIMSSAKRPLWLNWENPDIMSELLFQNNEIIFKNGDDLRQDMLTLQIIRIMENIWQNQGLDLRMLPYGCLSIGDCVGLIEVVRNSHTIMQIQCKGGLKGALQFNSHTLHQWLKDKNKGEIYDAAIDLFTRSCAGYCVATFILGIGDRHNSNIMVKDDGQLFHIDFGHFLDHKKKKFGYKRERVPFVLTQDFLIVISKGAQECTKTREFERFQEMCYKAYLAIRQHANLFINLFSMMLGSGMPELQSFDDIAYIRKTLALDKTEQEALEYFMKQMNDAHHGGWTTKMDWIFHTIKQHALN
p110α/p85α, sequence (P27986 whole entry partner): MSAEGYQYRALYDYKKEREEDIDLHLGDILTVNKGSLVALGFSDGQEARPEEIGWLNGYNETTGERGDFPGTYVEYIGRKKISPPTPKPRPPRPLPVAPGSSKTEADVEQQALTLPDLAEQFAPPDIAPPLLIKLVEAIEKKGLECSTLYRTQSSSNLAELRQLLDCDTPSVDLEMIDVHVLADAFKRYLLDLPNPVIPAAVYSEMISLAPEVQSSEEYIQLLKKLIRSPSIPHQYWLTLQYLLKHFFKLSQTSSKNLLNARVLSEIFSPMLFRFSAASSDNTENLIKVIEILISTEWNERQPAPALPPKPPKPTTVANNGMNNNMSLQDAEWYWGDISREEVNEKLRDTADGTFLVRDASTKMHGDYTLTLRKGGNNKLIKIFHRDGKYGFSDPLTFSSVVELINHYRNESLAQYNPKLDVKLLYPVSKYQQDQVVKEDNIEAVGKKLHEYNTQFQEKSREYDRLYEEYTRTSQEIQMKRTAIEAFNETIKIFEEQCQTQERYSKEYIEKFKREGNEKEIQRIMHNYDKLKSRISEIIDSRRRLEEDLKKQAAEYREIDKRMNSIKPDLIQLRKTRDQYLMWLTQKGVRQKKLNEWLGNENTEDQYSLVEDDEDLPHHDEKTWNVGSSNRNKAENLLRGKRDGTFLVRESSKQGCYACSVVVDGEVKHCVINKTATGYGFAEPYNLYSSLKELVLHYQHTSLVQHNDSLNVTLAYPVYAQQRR
p110δ/p85α, sequence (O00329 whole entry): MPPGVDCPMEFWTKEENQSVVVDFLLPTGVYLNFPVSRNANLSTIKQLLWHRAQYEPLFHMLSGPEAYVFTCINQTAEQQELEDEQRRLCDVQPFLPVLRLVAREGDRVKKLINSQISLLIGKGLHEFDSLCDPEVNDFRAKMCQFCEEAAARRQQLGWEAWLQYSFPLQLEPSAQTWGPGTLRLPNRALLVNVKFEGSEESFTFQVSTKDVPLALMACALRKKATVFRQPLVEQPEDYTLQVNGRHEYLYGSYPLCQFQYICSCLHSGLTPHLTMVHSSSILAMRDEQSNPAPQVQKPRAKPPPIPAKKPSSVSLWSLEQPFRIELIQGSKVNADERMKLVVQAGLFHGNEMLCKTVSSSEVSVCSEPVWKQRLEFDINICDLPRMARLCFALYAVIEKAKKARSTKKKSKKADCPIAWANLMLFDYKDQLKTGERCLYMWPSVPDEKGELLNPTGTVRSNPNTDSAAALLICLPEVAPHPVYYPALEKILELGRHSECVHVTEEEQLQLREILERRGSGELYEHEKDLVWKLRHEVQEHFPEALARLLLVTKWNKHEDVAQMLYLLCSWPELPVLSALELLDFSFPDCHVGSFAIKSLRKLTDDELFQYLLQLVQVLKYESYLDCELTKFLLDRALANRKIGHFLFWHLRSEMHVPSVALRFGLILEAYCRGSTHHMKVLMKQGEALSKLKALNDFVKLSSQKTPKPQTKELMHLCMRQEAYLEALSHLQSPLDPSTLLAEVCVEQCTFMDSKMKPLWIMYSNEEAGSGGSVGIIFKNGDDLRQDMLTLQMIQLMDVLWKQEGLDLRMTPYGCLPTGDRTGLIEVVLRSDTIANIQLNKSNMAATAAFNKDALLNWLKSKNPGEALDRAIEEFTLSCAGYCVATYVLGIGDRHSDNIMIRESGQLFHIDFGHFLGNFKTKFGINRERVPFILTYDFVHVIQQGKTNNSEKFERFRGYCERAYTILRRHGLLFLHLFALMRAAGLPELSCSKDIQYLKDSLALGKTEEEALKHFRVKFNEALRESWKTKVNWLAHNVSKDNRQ
p110δ/p85α, sequence (P27986 whole entry partner): as the sequence (P27986 whole entry partner) above

On to `CC(C)[N+](C)(CCOC(=O)C1c2ccccc2Oc2ccccc21)C(C)C` [propantheline], for which the plasma stability entry in [1] is “intermediate”.

Turning to `O=C(O)CCCc1ccc(N(CCCl)CCCl)cc1` [chlorambucil], in series [2], the chemical stability entry was “largely hydrolyzed”.

As to `CO[C@H]1C[C@@H]2CC[C@@H](C)[C@@](O)(O2)C(=O)C(=O)N2CCCC[C@H]2C(=O)O[C@H]([C@H](C)C[C@@H]2CC[C@@H](O)[C@H](OC)C2)CC(=O)[C@H](C)/C=C(\C)[C@@H](O)[C@@H](OC)C(=O)[C@H](C)C[C@H](C)/C=C/C=C/C=C/1C` [rapamycin], in the series with PI3K/Akt/mTor signaling, the Akt phosphorylation result was “enhances Akt phosphorylation” and the S6 phosphorylation entry is on record as “inhibits S6 phosphorylation”.

For the molecule `CCCOc1cc(N)ccc1C(=O)OCCN(CC)CC` [propoxycaine], the plasma stability result in series [1] is on record as “low”.

On to `CC(c1cc2ccccc2nc1N1CCN(C)CC1)n1nc(-c2cc(O)cc(F)c2)c2c(N)ncnc21` (centres unmarked) [Compound 73], for which the pIC50 at p110β/p85α was above 7.00; against p110γ it was below 6.00; against p110α/p85α, below 6.00; against p110δ/p85α it was above 7.00. The molecule also showed a negative logarithm of the EC50 (pEC50) with Balb/c splenic B cells above 7.00.

Consider `CO[C@H]1C[C@@H]2CC[C@@H](C)[C@@](O)(O2)C(=O)C(=O)N2CCCC[C@H]2C(=O)O[C@H]([C@H](C)C[C@@H]2CC[C@@H](OCCO)[C@H](OC)C2)CC(=O)[C@H](C)/C=C(\C)[C@@H](O)[C@@H](OC)C(=O)[C@H](C)C[C@H](C)/C=C/C=C/C=C/1C` [RAD001], for which the lupus symptoms result in the series on lupus disease model mice was “ameliorate lupus symptoms”.
